Literature values, collected in article PMC4228152 (BMC Pulmonary Medicine, 2014).
Read-outs that look alike come from different tables or passages of the source.

Legend:
[1] = system: allergen induced asthmatic response
monocytes = system: monocytes; set-up: method as in PMID 11865966; details: subjects after 4 weeks treatment
[2] = administered orally
[3] = inhaled inhibitor, read-out: IC50

| SMILES | IC50 (PDE4; [3]) [nM] | fall in LAR ([1]; inhaled) [%] | IC50 (PDE4A) [nM] | IC50 (PDE4B) [nM] | IC50 (PDE4D) [nM] | IC50 (PDE4; average of three isoforms, read-out: IC50 average for PDE4-A, -B and -D) [nM] | reduction in LAR AUC ([1]; oral) [%] | inhibition of the maximal fall in the EAR ([1]; orally administered) | inhibition of the maximal fall in the LAR ([1]; orally administered) | inhibition of LPS-induced TNFα release in monocytes ex vivo (monocytes) [fold] | mean Cmax [2] | reduction in LAR ([1]; inhaled) [%] |
| --- | --- | --- | --- | --- | --- | --- | --- | --- | --- | --- | --- | --- |
| CS(=O)(=O)Nc1ccc(C(=O)O[C@@H](Cc2c(Cl)c[n+]([O-])cc2Cl)c2ccc(OC(F)F)c(OCC3CC3)c2)cc1OCC1CC1 [CHF6001] | 0.026 | 30 |  |  |  |  |  |  |  |  |  |  |
| O=C(Nc1c(Cl)cncc1Cl)c1ccc(OC(F)F)c(OCC2CC2)c1 [roflumilast] |  |  | […] | […] | […] | 0.5 | 43 | 14-28% | 16-43% | 1.3 | […] |  |
| COc1cccc(Nc2c(C(N)=O)cnc3c(C)cc(S(=O)(=O)c4cccc(C(=O)N(C)C)c4)cc23)c1 [GSK256066] | 0.0032 |  |  |  |  |  |  |  |  |  |  | 34 |
